From ChEMBL document CHEMBL1156451 (J Biol Chem, 2007)
≈ marks a conversion by molar mass, not a printed value. Calls of active or inactive are those of the source. No cut-off for these calls is given here. Where a SMILES comes first, the peptide text is derived from it.

Assays:
[1] = tested on: Escherichia coli; assay: Effect on morphology in Escherichia coli K12 ATCC 23716 assessed as detachment of outer membrane from inner membrane at 4 uM after 30 mins by transmission electron microscopy; assay type: functional, organism-based
[2] = tested on: Escherichia coli; assay: Antibacterial activity against Escherichia coli K12 ATCC 23716 after 24 hrs in Mueller-Hinton broth medium; assay type: functional; details: K12, 24 h
[3] = tested on: Brucella abortus; assay: Antibacterial activity against Brucella abortus 9.19 (per-) after 24 hrs in Mueller-Hinton broth medium; assay type: functional
[4] = tested on: Pseudomonas aeruginosa; assay: Antibacterial activity against Pseudomonas aeruginosa CUN 4158-02 after 24 hrs in Mueller-Hinton broth medium; assay type: functional
[5] = tested on: Bordetella bronchiseptica; assay: Antibacterial activity against Bordetella bronchiseptica CUN 11844-99 after 24 hrs in Mueller-Hinton broth medium; assay type: functional
[6] = Toxicity in human erythrocytes assessed as hemolysis; assay type: cell-based; details: erythrocyte
[7] = tested on: HeLa; assay: Cytotoxicity against human HeLa cells at 100 ug/ml after 24 hrs by neutral red uptake assay relative to control; assay type: functional
[8] = tested on: Escherichia coli; assay: Antibacterial activity against Escherichia coli K12 ATCC 23716 in 10% Luria-Bertani medium/90% Hepes buffer at pH 7.0; assay type: functional
[9] = tested on: Escherichia coli; assay: Antibacterial activity against Escherichia coli ATCC 25922 after 24 hrs in Mueller-Hinton broth medium; assay type: functional; details: ATCC 25922, 24 h
[10] = tested on: Acinetobacter baumannii; assay: Antibacterial activity against Acinetobacter baumannii ATCC 19606 after 24 hrs in Mueller-Hinton broth medium; assay type: functional; details: ATCC 19606, 24 h
[11] = tested on: Escherichia coli; assay: Effect on morphology in Escherichia coli K12 ATCC 23716 assessed as formation of high electrodense clusters at 20 uM after 30 mins by transmission electron microscopy; assay type: functional, organism-based
[12] = tested on: Staphylococcus aureus; assay: Antibacterial activity against methicillin-resistant Staphylococcus aureus ATCC 43300 after 24 hrs in Mueller-Hinton broth medium; assay type: functional; details: ATCC 43300, 24 h
[13] = tested on: HeLa; assay: Cytotoxicity against human HeLa cells at 100 ug/ml after 24 hrs by MTT assay relative to control; assay type: functional
[14] = tested on: Brucella abortus; assay: Antibacterial activity against Brucella abortus 9.49 (per-) after 48 hrs in Mueller-Hinton broth medium; assay type: functional

With CC[C@H](C)[C@H](NC(=O)[C@H](CCCNC(=N)N)NC(=O)[C@H](CCCNC(=N)N)NC(=O)[C@H](CC(C)C)NC(=O)[C@H](Cc1ccccc1)NC(=O)[C@@H](NC(=O)[C@H](CCCNC(=N)N)NC(=O)[C@H](CCSC)NC(=O)[C@@H](NC(=O)[C@H](CCCCN)NC(=O)[C@H](CCCCN)NC(=O)[C@H](CS)NC(=O)[C@@H](NC(=O)CNC(=O)[C@H](CCCNC(=N)N)NC(=O)[C@H](CC(C)C)NC(=O)[C@@H](NC(=O)[C@@H](N)CCCCN)[C@@H](C)CC)C(C)C)[C@@H](C)CC)[C@@H](C)O)C(=O)N[C@@H](CO)C(=O)N[C@@H](CCCCN)C(=O)N[C@@H](CC(=O)O)C(=O)N[C@H](C(=O)N[C@@H](CC(C)C)C(=O)N[C@H](C(=O)NCC(=O)N[C@@H](CCCCN)C(=O)N[C@@H](CCCCN)C(=O)O)[C@@H](C)O)[C@@H](C)CC (H-KILRGVCKKIMRTFLRRISKDILTGKK-OH) the Activity [1] was “Active”, the MBC [2] was 0.25 µg/mL (≈ 0.078 µM) and the MIC [2] was 0.25 µg/mL (≈ 0.078 µM). It also gave an MBC [3] of 32 µg/mL (≈ 9.99 µM), an MBC [4] of 32 µg/mL (≈ 9.99 µM) and an MIC [4] of 32 µg/mL (≈ 9.99 µM). The MBC [5] was 4 µg/mL (≈ 1.25 µM), the MIC [5] was 4 µg/mL (≈ 1.25 µM) and the Activity [6] was “Toxic”. For the same molecule, the Activity [7] was 31.6%, the MBC [8] was 32 µg/mL (≈ 9.99 µM) and the MIC [8] was 16 µg/mL (≈ 5 µM). It also gave an MBC [9] of 16 µg/mL (≈ 5 µM), an MIC [9] of 16 µg/mL (≈ 5 µM) and an MBC [10] of 2 µg/mL (≈ 0.624 µM). The MIC [10] was 2 µg/mL (≈ 0.624 µM), the Activity [11] was “Active” and the MBC [12] was 256 µg/mL (≈ 79.9 µM). For the same molecule, the MIC [12] was 256 µg/mL (≈ 79.9 µM), the Activity [13] was 28.7% and the MIC [14] was 32 µg/mL (≈ 9.99 µM).
